{
  "source": "patent US20240390434A1",
  "about": "“PROBIOTIC ENHANCERS AND USES THEREOF” (Blis Technologies Limited, priority 2021, published 2024)",
  "key": {"ENTR indicator strains": {"test_system": "ENTR indicator strains", "test": "Dose response deferred antagonism assay, producer M18: average over indicators", "assay_type": "cell-based"}, "indicator strains": {"test_system": "indicator strains", "test": "Deferred antagonism assay, producer S. salivarius M18: total strains inhibited", "assay_type": "cell-based", "protocol": "(§1) 1-2 producer strain colonies were transferred from a stock plate into 900 μL of suspension solution using a fresh cotton swab. Following this, suspensions were vortexed, and a sample was inoculated onto solid culture media using a fresh cotton swab. The inoculation was a streak that runs diametrically across the agar plate in a 1.5 cm wide strip. The plate was then incubated. Following incubation all visible colonies were removed by swabbing them from the agar surface. The plates were then treated with chloroform by dispensing 2 ml of chloroform onto 4 cm×4 cm piece of cloth and sealing the inverted agar plate on top for 30 minutes. The plates were then air dried for 30 minutes following chloroforming. 1-2 indicator strain colonies were then transferred from a stock plate into complementary suspension solution. The suspensions were then vortexed, and a sample was inoculated onto the same agar surface. These samples were streaked in a perpendicular direction to the initial producer streak.\n(§2) Each indicator streak was prepared with fresh a suspension containing cells from a corresponding stock plate containing the indicator strain of interest. Indicator strains suspension samples were transferred using a fresh cotton swab. Results were measured by qualitatively reviewing the subsequent (if any) sizes of the zones of inhibition (ZOI) of indicator strain colony growth. A positive result is when there is a distinctive reduction or complete inhibition of indicator colony growth on the culture medium.\n(§3) CABCa agar plates containing various concentrations of saccharide were prepared according to the methods described in Method 1. Producer strains were transferred from stock agar plates into 900 μL THB using a fresh cotton swab. A plastic spread plater was cut to approximately 1.2 cm width and then dipped into ethanol and left to air dry to ensure sterility. A 100 μL sample of the producer strain suspension was then dispensed onto the agar surface in a straight line running diametrically across the agar surface in (approximately) 20 μL spots. The spots were spaced approximately 1.5 cm apart from each other. The plastic spreader was then used to evenly distribute the spots across the agar surface in a 1.5 cm wide strip. This step was taken to ensure an even producer streak was inoculated onto the agar surface and provided an approximate measure of the initial inoculum concentration. Separate plastic spreaders were used for samples containing different producer strains. The samples were left to soak into the agar surface until there was no visible liquid remaining on the agar surface (approximately 20 minutes). Following producer streak preparations, the deferred antagonism assay protocol was followed as per Method 2. Results were recorded by measuring the size of the zone of inhibition (ZOI) in mm.\nA dose response assay was carried out according to method 3 above, except a 1.2 cm streak was used. For the individual saccharide testing the pH of the producer streak was adjusted after the growth of producer to change the acidic conditions.\nA deferred antagonism assay was conducted using K12 or M18 raw ingredient suspended in Todd Hewitt broth (THB). This was spread as a 1.2 cm streak containing approximately 1-2×10^6 cfu down the middle of a CABCa control or CABCa galactose supplemented test plate. After 18 hrs growth at 37° C. with 5% CO2, bacterial growth was removed, and the pH of the agar in the initial streak was measured and adjusted to a pH of 6.5-7.5 using 0.5M sodium carbonate pH11 before sterilizing the agar surface using chloroform vapor. Bacterial test strains were suspended in i-THB before being swabbed across the plates perpendicular to the initial streak. Plates were incubated for a further 18 hrs incubation at 37° C. with 5% CO2 before measuring (mm) any zones of inhibition for each test strain, […]"}, "salB": {"test_system": "salB", "assay_type": "cell-based, S. salivarius K12", "details": "K12", "quoted_text": "Method: CABCa agar plates were prepared either with or without 2.5% w/w raffinose, 0.5% w/w galactose, combined 2.5% w/w raffinose and 0.5% w/w galactose, 0.5% w/w glucose or 2.5% w/w glucose by the addition of 0.5% (w/v) calcium carbonate to solid CAB agar in bottles and then melted by autoclaving at 110° C. for 10 mins. Once cooled, filter sterilised solutions of the saccharides or distilled water were added and mixed and then 20 ml pipetted into petri dishes.\nA S. salivarius K12 raw ingredient suspension was prepared in PBS containing approx. 1×10^8cfu/ml. 100p of this suspension was spread evenly onto control and test agar plates. Plates were incubated at 37° C. with 5% CO2 for approx, 19 hrs.\nBacterial growth from each plate was collected using a sterile cotton swab and resuspended into 1 ml PBS in a screw capped tube. The bacterial cells were then pelleted by centrifugation at 13,000 rpm for 1 minute at 4° C. The supernatant was removed, and the cell pellet was resuspended in 1 ml of TRIzol reagent. The bacterial cell suspension was transferred into a 2 ml screw-capped tube containing 0.1 mm Zirconia/silicon beads. […]\nThe cDNA samples from K12 raw ingredient grown on the CABCa control plates and CABCa supplemented with the various saccharides were then analysed by qPCR for the levels of gene expression of the following genes: salA, salB, salQ and ureC. […]"}, "M. catarrhalis TW2": {"test_system": "M. catarrhalis TW2", "test": "Dose response deferred antagonism assay, producer K12", "assay_type": "cell-based", "details": "peak", "protocol": "as §1, §2, §3\n(§4) The results presented in FIG. 1 and FIG. 2 illustrate the change in ear, nose, and throat (ENT) microorganism indicator strain zone of inhibition sizes. When K12 was cultured in the presence of various concentrations of galactose the ZOI sizes for several of the ENTR indicator strains increased markedly from the control condition (FIG. 1). M. catarrhalis TW1 and TW2 display similar changes in the ZOI sizes across the various concentrations of galactose. The change in TW1 ZOI size peaks at 1.5% galactose(w/v) (12 mm) then decreases at 2.0% galactose (w/v), whereas the change of TW2 ZOI size peaks at 2.0% galactose (w/v) (11 mm). The change in L. lactis T-21 ZOI sizes trend upwards relative to the concentration of galactose present in the culture medium."}, "S. pyogenes M76": {"test_system": "S. pyogenes M76", "test": "Dose response deferred antagonism assay, producer K12", "assay_type": "cell-based", "protocol": "as §1, §2, §3, §4"}, "L. lactis T-21": {"test_system": "L. lactis T-21", "test": "Dose response deferred antagonism assay, producer K12", "assay_type": "cell-based", "protocol": "as §1, §2, §3, §4"}, "[1]": {"test_system": "S. pyogenes strains or other pathogens", "test": "Inhibitory activity of K12 grown in M17 broth with saccharides", "assay_type": "cell-based", "details": "saccharide 0.83% or 2.5% w/v, vs control"}, "[2]": {"test_system": "indicator bacterial test strains", "test": "Inhibitory activity of freeze dried raw ingredient powder, M18", "assay_type": "cell-based", "details": "galactose 0.5% w/w; raffinose 2.5% w/w; or combination", "protocol": "Method: The amount of raffinose and galactose used was calculated based on the volume of the area of the producer streak, (which was calculated to be 4.25 g) to allow for the absorption of the saccharides into the agar. Based on this, amount of 0.021 g (i.e. 0.5% w/w galactose of 4.25 g agar volume) of galactose, 0.11 g (i.e 2.5% w/w) of raffinose and the combination of galactose (0.5% w/w) and raffinose (2.5% w/w) (0.13 g total) were weighed into sterile containers. K12 and/or M18 raw ingredient were suspended and diluted with sterile distilled water to a concentration of 1-2×10^6 cfu/100 μl. Then, […] of K12 only, M18 only, and K12±M18 suspensions were spread as a 1 cm streak down the middle of a CABCa agar plate using a sterile spreader. […] Bacterial growth was then removed using a microscope slide, and the pH of the agar in the producer streak area was measured and adjusted to pH 6.5-7.5 using 0.5M sodium carbonate (pH 11) before surface sterilizing the plates with chloroform vapour. […] Zones of inhibition for each test organism were then measured in mm using a ruler. The amount of raffinose and galactose to be used was calculated based on the volume of the area of the producer streak, (which was calculated to be 4.25 g) to allow for absorption into the agar."}},
  "note": "Read-outs that look alike come from different tables or passages of the source.",
  "data": [
    {"smiles": "OC[C@H]1O[C@H](OC[C@H]2O[C@H](O[C@]3(CO)O[C@H](CO)[C@@H](O)[C@@H]3O)[C@H](O)[C@@H](O)[C@@H]2O)[C@H](O)[C@@H](O)[C@H]1O", "note": "[Raffinose, D-(+) Raffinose pentahydrate]", "values": [
      {"measurement": "Average ZOI change", "setting": "ENTR indicator strains; 1.5% raffinose", "value": 22.16, "unit": "mm"},
      {"measurement": "Total number of strains inhibited", "setting": "indicator strains; Raffinose 1.7% wt", "value": 6},
      {"measurement": "Total number of strains inhibited", "setting": "indicator strains; Raffinose 1.7% wt, pH adjusted", "value": 6},
      {"measurement": "Total number of strains inhibited", "setting": "indicator strains; Raffinose 2.5% wt", "value": 7},
      {"measurement": "Total number of strains inhibited", "setting": "indicator strains; Raffinose 2.5% wt, pH adjusted", "value": 6},
      {"measurement": "Total number of strains inhibited", "setting": "indicator strains; Raffinose 3.3% wt", "value": 6},
      {"measurement": "Total number of strains inhibited", "setting": "indicator strains; Raffinose 3.3% wt, pH adjusted", "value": 6},
      {"measurement": "Total number of strains inhibited", "setting": "indicator strains; Raffinose 5% wt", "value": 7},
      {"measurement": "Total number of strains inhibited", "setting": "indicator strains; Raffinose 5% wt, pH adjusted", "value": 6},
      {"measurement": "Total number of strains inhibited", "setting": "indicator strains; Raffinose 10% wt", "value": 2},
      {"measurement": "Total number of strains inhibited", "setting": "indicator strains; Raffinose 10% wt, pH adjusted", "value": 1},
      {"measurement": "increase in gene expression of salB relative to no sugar control", "setting": "salB; 2.5% w/w sugar in CABCa agar", "value": 241, "unit": "fold"},
      {"measurement": "change in ZOI size M. catarrhalis TW2", "setting": "M. catarrhalis TW2; 2.0% (w/v) raffinose", "value": 13, "unit": "mm"},
      {"measurement": "change in ZOI size for S. pyogenes M76", "setting": "S. pyogenes M76; 1.5% raffinose (w/v), peak", "value": 13, "unit": "mm"},
      {"measurement": "change in L. lactis ZOI size", "setting": "L. lactis T-21; 0.1% raffinose (w/v)", "value": 15, "unit": "mm"},
      {"measurement": "change in L. lactis ZOI size", "setting": "L. lactis T-21; 1.0% raffinose (w/v)", "value": 16, "unit": "mm"},
      {"measurement": "inhibitory activity of K12 grown in presence of saccharide", "setting": "[1]", "value": "greater inhibitory activity"},
      {"measurement": "inhibitory activity of freeze-dried raw ingredient powder of M18", "setting": "[2]", "value": "induced the inhibitory activity"}
    ]},
    {"smiles": "O=C[C@H](O)[C@@H](O)[C@@H](O)[C@H](O)CO", "note": "[Galactose, D-galactose]", "values": [
      {"measurement": "Average ZOI change", "setting": "ENTR indicator strains; 1.5% galactose", "value": 11.5, "unit": "mm"},
      {"measurement": "Total stains inhibited", "setting": "indicator strains; Galactose 0.5% w/w", "value": "5/7"},
      {"measurement": "Total stains inhibited", "setting": "indicator strains; Galactose 1.25% w/w", "value": "4/7"},
      {"measurement": "Total stains inhibited", "setting": "indicator strains; Galactose 1.7% w/w", "value": "1/7"},
      {"measurement": "Total stains inhibited", "setting": "indicator strains; Galactose 2.5% w/w", "value": "2/7"},
      {"measurement": "Total stains inhibited", "setting": "indicator strains; Galactose 3.3% w/w", "value": "5/7"},
      {"measurement": "Total stains inhibited", "setting": "indicator strains; Galactose 5% w/w", "value": "2/7"},
      {"measurement": "increase in gene expression of salB relative to no sugar control", "setting": "salB; 0.5% w/w sugar in CABCa agar", "value": 641, "unit": "fold"},
      {"measurement": "change of TW2 ZOI size", "setting": "M. catarrhalis TW2; 2.0% galactose (w/v)", "value": 11, "unit": "mm"},
      {"measurement": "change in M76 ZOI size", "setting": "S. pyogenes M76; between 1.5% and 2.0% galactose", "value": 11, "unit": "mm"},
      {"measurement": "change in L. lactis T-21 ZOI sizes", "setting": "L. lactis T-21; relative to the concentration of galactose", "value": "trend upwards"},
      {"measurement": "inhibitory activity of K12 grown in presence of saccharide", "setting": "[1]", "value": "greater inhibitory activity"},
      {"measurement": "inhibitory activity of freeze-dried raw ingredient powder of M18", "setting": "[2]", "value": "induced the inhibitory activity"}
    ]}
  ]
}
